According to ChEMBL document CHEMBL3046011, “QSAR analysis of 2-sulfonylphenyl-3-phenyl-indole derivatives as novel anti-inflammatory compounds” (Med Chem Res, 2009):

Biological target: T1, Prostaglandin G/H synthase 2 (Mus musculus, UniProt Q05769)
T1 sequence (Q05769 whole entry): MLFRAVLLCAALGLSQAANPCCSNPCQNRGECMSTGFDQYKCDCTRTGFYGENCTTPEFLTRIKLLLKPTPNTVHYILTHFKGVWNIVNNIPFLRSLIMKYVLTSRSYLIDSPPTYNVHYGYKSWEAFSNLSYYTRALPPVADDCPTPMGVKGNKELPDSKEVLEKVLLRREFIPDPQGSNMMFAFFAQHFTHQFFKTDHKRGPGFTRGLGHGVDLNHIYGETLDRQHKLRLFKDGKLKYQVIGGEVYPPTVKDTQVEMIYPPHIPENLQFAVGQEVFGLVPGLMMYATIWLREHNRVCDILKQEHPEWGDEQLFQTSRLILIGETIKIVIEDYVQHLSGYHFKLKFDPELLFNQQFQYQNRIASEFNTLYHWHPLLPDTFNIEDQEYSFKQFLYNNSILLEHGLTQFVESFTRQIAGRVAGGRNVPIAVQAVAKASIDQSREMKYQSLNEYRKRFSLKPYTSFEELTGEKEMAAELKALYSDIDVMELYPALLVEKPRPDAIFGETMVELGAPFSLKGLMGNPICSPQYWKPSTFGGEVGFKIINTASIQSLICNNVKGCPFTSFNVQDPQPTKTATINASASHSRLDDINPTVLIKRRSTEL
Experiment: Inhibition of COX2 in Mus musculus (mouse) peritoneal macrophage

Structure (SMILES) | IC50 [nM]
NS(=O)(=O)c1ccc(-c2[nH]c3ccc(Cl)cc3c2-c2ccccc2)cc1 | 0.141
NS(=O)(=O)c1ccc(-c2[nH]c3ccccc3c2-c2ccccc2)cc1 | 0.0891
CC(=O)NS(=O)(=O)c1ccc(-c2[nH]c3ccccc3c2-c2ccccc2)cc1 | 0.178
Cc1ccc2[nH]c(-c3ccc(S(N)(=O)=O)cc3)c(-c3ccccc3)c2c1 | 0.02
Cc1ccc2[nH]c(-c3ccc(S(C)(=O)=O)cc3)c(-c3ccccc3)c2c1 | 0.282

The next lines start with the values.

IC50 [nM] | Structure (SMILES)
0.02 | COc1ccc(-c2c(-c3ccc(S(C)(=O)=O)cc3)[nH]c3ccccc23)cc1
0.603 | CS(=O)(=O)c1ccc(-c2[nH]c3ccccc3c2-c2ccccc2)cc1
33.1 | NS(=O)(=O)c1ccc(-c2[nH]c3ccccc3c2-c2ccc(Cl)cc2)cc1
0.17 | Cc1ccc(-c2c(-c3ccc(S(C)(=O)=O)cc3)[nH]c3ccccc23)cc1C
